According to PMC10057977, “Use of In Vivo Imaging and Physiologically-Based Kinetic Modelling to Predict Hepatic Transporter Mediated Drug–Drug Interactions in Rats” (Pharmaceutics, 2023):

Key:
[1] = parameters: method as in supplement [33]; details: clinical; ref supplement [33]; cited from earlier work
[2] = Gadoxetate PBPK model transport parameters; parameters: species or system rat
From the text: A previously developed reduced PBPK model of gadoxetate was used in the current study. The PBPK model (Figure 1) is composed of seven compartments: blood, spleen, splanchnic organs, liver interstitial space, hepatocytes, rest of the body (ROB) vascular, and extravascular space. In the ROB compartment, muscles, fat, bones, and skin, among others, are represented.
A permeability-limited liver model was applied to describe the gadoxetate active uptake into the hepatocytes, as per Equation (1). (1) Vliv,extrdcliv,extr/dt=inputsplan+inputart−Qhcliv,extr/Kliv, extr−b−CLuptake· cliv,extr−CLpassive(cliv,extr−fu,liv, cell cliv,cell)Vliv,celldcliv,cell/dt=CLuptake cliv,extr+CLpassive(cliv,extr−fu,liv, cell cliv,cell)−CLbiliary fu,liv,cell cliv,cell […]
cliv,extr , cliv,cell [μmol/L] and Vliv,extr , Vliv,int [L] are the gadoxetate concentrations ( c ) and volumes ( V ) of the liver extracellular space and hepatocytes, respectively. […] Details of the model development, relations between concentrations in PBPK compartments and measured ΔR1 , parameters identification, and performance were described previously. […]

CLbiliary, new value in unified units ([2]; total concentration in hepatocytes) [mL/min] | CLuptake, new value in unified units ([2]; total concentration in the liver interstitial fluid) [mL/min] | SMILES | treated patients with mild liver dysfunction [1]
– | – | COc1ccccc1Oc1c(NS(=O)(=O)c2ccc(C(C)(C)C)cc2)nc(-c2ncccn2)nc1OCCO [Bosentan] | about 10%
0.756 | 36.2 | CCOc1ccc(C[C@@H](CN(CCN(CC(=O)[O-])CC(=O)[O-])CC(=O)[O-])N(CC(=O)[O-])CC(=O)[O-])cc1.[Gd+3].[H+].[H+] [gadoxetate, Gadoxetate] | –
